# Experimental data published in US11331304B2, “YAP1 inhibitors and methods” (The Jackson Laboratory, priority 2016, dated 2022).
# Assays:
# [1] = Solubility of verteporfin derivative compounds in water and buffer (pH = 2); assay type: physicochemical; conditions: for Buffer (pH = 2) result / Buffer (pH = 2) result, fraction dissolved: phosphate buffer pH = 2; for Water result: at the amount per volume in mg/mL
# [2] = test system: mouse medulloblastoma cells; test: IC50 / viability (Cell Titer Blue) in mouse medulloblastoma tumorsphere cell line; assay type: cell-based; conditions: FIGS. 9-11
# Description: Uptake was calculated by measuring relative fluorescence in two different primary medulloblastoma cell lines. Absorbance measurements were normalized to t=0 with drugs in the well, the drugs were washed out 30 minutes later, and absorbance was measured again. FIG. 9B) IC50 in a mouse medulloblastoma tumorsphere cell line treated with verteporfin or a verteporfin derivative compound (T10, T11, T13, T14, or T15). DMSO was used as a control.
# Primary cells from spontaneous mouse medulloblastoma ([…];p53^−/− or FSMO;GFAPcre) and MED311 PDX model were isolated and cultured in serum-free stem cell medium (DMEM/F12, B27, pen/strep, bFGF9 10 nanograms per milliliter (ng/mL)), and EGF (20 ng/mL). Number of self-renewing stem cells in vitro were measured by plating single cells at a clonal density (<1 cell/μL) and counting spheres >100 μM 7 days later. To establish IC50 values, 3000 mouse medulloblastoma cells were plated in 96 wells and treated varying concentrations of verteporfin and new derivatives were synthesized, in triplicate, and viability was measured using Cell Titer Blue assay (Promega, Madison, Wis.) 3 days after drug treatment.
Structure (SMILES),Buffer (pH = 2) result [1],Water result [1],"Buffer (pH = 2) result, fraction dissolved [1]",solubility compared to VP [1],activity / potency compared to VP [2]
"C=Cc1c(C)c2cc3nc(cc4[nH]c(cc5nc(cc1[nH]2)C(C)=C5CCC(=O)NCCCC[C@H](N)C(=O)O)c(CCC(=O)NCCCC[C@H](N)C(=O)O)c4C)[C@@]1(C)C3=CC=C(C(=O)OC)[C@H]1C(=O)OC [Compound T7, (2S)-2-amino-6-[3-[(23 S,24R)-14-ethenyl-5-[3-[[(5 S)-5-amino-5-carboxy-pentyl]amino]-3-oxo-propyl]-22,23-bis(methoxycarbonyl)-4,10,15,24-tetramethyl-25,26,27,28-tetraazahexacyclo[16.6.1.13,6.18,11.113,16.019,24]octacosa-1,3,5,7,9,11(27),12,14,16,18(25), 19,21-dodecaen-9-yl]propanoylamino]hexanoic acid]",soluble,soluble,–,–,–
"C=Cc1c(C)c2cc3nc(cc4[nH]c(cc5nc(cc1[nH]2)C(C)=C5CCC(=O)N[C@@H](CC(=O)O)C(=O)O)c(CCC(=O)N[C@@H](CC(=O)O)C(=O)O)c4C)[C@@]1(C)C3=CC=C(C(=O)OC)[C@H]1C(=O)OC [Compound T3, (2S)-2-[3-[(23 S,24R)-14-ethenyl-5-[3-[[(1 S)-1,2-dicarboxyethyl]amino]-3-oxo-propyl]-22,23-bis(methoxycarbonyl)-4,10,15,24-tetramethyl-25,26,27,28-tetraazahexacyclo[16.6.1.13,6.18,11.113,16.019,24]octacosa-1,3,5,7,9,11(27),12,14,16,18(25), 19,21-dodecaen-9-yl]propanoylamino]butanedioic acid]",insoluble,insoluble,–,–,–
"C=Cc1c(C)c2cc3nc(cc4[nH]c(cc5nc(cc1[nH]2)C(C)=C5CCC(=O)NCCC(=O)N[C@@H](CC(=O)O)C(=O)O)c(CCC(=O)OC)c4C)[C@@]1(C)C3=CC=C(C(=O)OC)[C@H]1C(=O)OC [Compound T4, (2S)-2-[3-[3-[(23 S,24R)-14-ethenyl-5-(3-methoxy-3-oxopropyl)-22,23-bis(methoxycarbonyl)-4,10,15,24-tetramethyl-25,26,27,28-tetraazahexacyclo[16.6.1.13,6.18,11.113,16.019,24]octacosa-1,3,5,7,9,11(27),12,14,16,18(25), 19,21-dodecaen-9-yl]propanoylamino]propanoylamino]butanedioic acid]",–,insoluble,~80%,–,–
"C=Cc1c(C)c2cc3nc(cc4[nH]c(cc5nc(cc1[nH]2)C(C)=C5CCC(=O)OCCOCCOCCOC)c(CCC(=O)OCCOCCOCCOC)c4C)[C@@]1(C)C3=CC=C(C(=O)OC)[C@H]1C(=O)OC [Compound T9, 2-[2-(2-methoxyethoxy)ethoxy]ethyl 3-[(23 S,24R)-14-ethenyl-5-[3-[2-[2-(2-methoxyethoxy)ethoxy]ethoxy]-3-oxo-propyl]-22,23-bis(methoxycarbonyl)-4,10,15,24-tetramethyl-25,26,27,28-tetraazahexacyclo[16.6.1.13,6.18,11.113,16.019,24]octacosa-1,3,5,7,9,11(27),12,14,16,18(25), 19,21-dodecaen-9-yl]propanoate]",–,–,–,decreased solubility,decreased solubility and activity
"C=Cc1c(C)c2cc3nc(cc4[nH]c(cc5nc(cc1[nH]2)C(C)=C5CCC(=O)OCCOCCOCCOC)c(CCC(=O)OC)c4C)[C@@]1(C)C3=CC=C(C(=O)OC)[C@H]1C(=O)OC [Compound T8, Methyl 3-[(23S,24R)-14-ethenyl-9-[3-[2-[2-(2-methoxyethoxy)ethoxy]ethoxy]-3-oxo-propyl]-22,23-bis(methoxycarbonyl)-4,10,15,24-tetramethyl-25,26,27,28-tetraazahexacyclo[16.6.1.13,6.18,11.113,16.019,24]octacosa-1,3,5,7,9,11(27),12,14,16,18(25), 19,21-dodecaen-5-yl]propanoate]",insoluble,insoluble,–,–,–
"C=Cc1c(C)c2cc3nc(cc4[nH]c(cc5nc(cc1[nH]2)C(C)=C5CCC(=O)OCCOCCOCCOCCOCCOCCOCCOC)c(CCC(=O)OC)c4C)[C@@]1(C)C3=CC=C(C(=O)OC)[C@H]1C(=O)OC [Compound T10, Methyl 3-[(23S,24R)-14-ethenyl-9-[3-[2-[2-[2-[2-[2-[2-(2-methoxyethoxy)ethoxy]ethoxy]ethoxy]ethoxy]ethoxy]ethoxy]-3-oxo-propyl]-22,23-bis(methoxycarbonyl)-4,10,15,24-tetramethyl-25,26,27,28-tetraazahexacyclo[16.6.1.13,6.18,11.113,16.019,24]octacosa-1,3,5,7,9,11(27),12,14,16,18(25), 19,21-dodecaen-5-yl]propanoate]",insoluble,insoluble,–,–,–

# Continued, in another order:
Buffer (pH = 2) result [1],Water result [1],"Buffer (pH = 2) result, fraction dissolved [1]",solubility compared to VP [1],Structure (SMILES),activity / potency compared to VP [2]
soluble,insoluble,–,–,"C=Cc1c(C)c2cc3nc(cc4[nH]c(cc5nc(cc1[nH]2)C(C)=C5CCC(=O)N(C)CCN(C)C)c(CCC(=O)OC)c4C)[C@@]1(C)C3=CC=C(C(=O)OC)[C@H]1C(=O)OC [Compound T14, Methyl 3-[(23S,24R)-14-ethenyl-9-[3-[2-(dimethylamino)ethyl-methyl-amino]-3-oxo-propyl]-22,23-bis(methoxycarbonyl)-4,10,15,24-tetramethyl-25,26,27,28-tetraazahexacyclo[16.6.1.13,6.18,11.113,16.019,24]octacosa-1,3,5,7,9,11(27), 12,14,16,18(25), 19,21-dodecaen-5-yl]propanoate]",–
–,insoluble,~70%,–,"C=Cc1c(C)c2cc3nc(cc4[nH]c(cc5nc(cc1[nH]2)C(C)=C5CCC(=O)NCCN(C)C)c(CCC(=O)OC)c4C)[C@@]1(C)C3=CC=C(C(=O)OC)[C@H]1C(=O)OC [Compound T11, Methyl 3-[(23 S,24R)-14-ethenyl-9-[3-[2-(dimethylamino)ethylamino]-3-oxo-propyl]-22,23-bis(methoxycarbonyl)-4,10,15,24-tetramethyl-25,26,27,28-tetraazahexacyclo[16.6.1.13,6.18,11.113,16.019,24]octacosa-1,3,5,7,9,11(27), 12,14,16,18(25), 19,21-dodecaen-5-yl]propanoate]",–
–,insoluble,~20%,–,"C=Cc1c(C)c2cc3nc(cc4[nH]c(cc5nc(cc1[nH]2)C(C)=C5CCC(=O)N[C@@H](CC(=O)O)C(=O)O)c(CCC(=O)OC)c4C)[C@@]1(C)C3=CC=C(C(=O)OC)[C@H]1C(=O)OC [Compound T1, (2S)-2-[3-[(23 S,24R)-14-ethenyl-5-(3-methoxy-3-oxopropyl)-22,23-bis(methoxycarbonyl)-4,10,15,24-tetramethyl-25,26,27,28-tetraazahexacyclo[16.6.1.13,6.18,11.113,16.019,24]octacosa-1,3,5,7,9,11(27),12,14,16,18(25), 19,21-dodecaen-9-yl]propanoylamino]butanedioic acid]",–
soluble,soluble,–,–,"C=Cc1c(C)c2cc3nc(cc4[nH]c(cc5nc(cc1[nH]2)C(C)=C5CCC(=O)NCCCC[C@H](N)C(=O)O)c(CCC(=O)OC)c4C)[C@@]1(C)C3=CC=C(C(=O)OC)[C@H]1C(=O)OC [Compound T5, (2S)-2-amino-6-[3-[(23 S,24R)-14-ethenyl-5-(3-methoxy-3-oxopropyl)-22,23-bis(methoxycarbonyl)-4,10,15,24-tetramethyl-25,26,27,28-tetraazahexacyclo[16.6.1.13,6.18,11.113,16.019,24]octacosa-1,3,5,7,9,11(27),12,14,16,18(25), 19,21-dodecaen-9-yl]propanoylamino]hexanoic acid]",–
soluble,soluble,–,–,"C=Cc1c(C)c2cc3nc(cc4[nH]c(cc5nc(cc1[nH]2)C(C)=C5CCC(=O)N(C)CCN(C)C)c(CCC(=O)N(C)CCN(C)C)c4C)[C@@]1(C)C3=CC=C(C(=O)OC)[C@H]1C(=O)OC [Compound T15, N-[2-(dimethylamino)ethyl]-3-[(23 S,24R)-14-ethenyl-5-[3-[2-(dimethylamino)ethyl-methyl-amino]-3-oxo-propyl]-22,23-bis(methoxycarbonyl)-4,10,15,24-tetramethyl-25,26,27,28-tetraazahexacyclo[16.6.1.13,6.18,11.113,16.019,24]octacosa-1,3,5,7,9,11(27), 12,14,16,18(25),19,21-dodecaen-9-yl]-N-methyl-propanamide]",–
–,–,–,more soluble,"C=Cc1c(C)c2cc3nc(cc4[nH]c(cc5nc(cc1[nH]2)C(C)=C5CCC(=O)NCCN(C)C)c(CCC(=O)NCCN(C)C)c4C)[C@@]1(C)C3=CC=C(C(=O)OC)[C@H]1C(=O)OC [Compound T13, N-[2-(dimethylamino)ethyl]-3-[(23 S,24R)-14-ethenyl-5-[3-[2-(dimethylamino)ethylamino]-3-oxo-propyl]-22,23-bis(methoxycarbonyl)-4,10,15,24-tetramethyl-25,26,27,28-tetraazahexacyclo[16.6.1.13,6.18,11.113,16.019,24]octacosa-1,3,5,7,9,11(27), 12,14,16,18(25), 19,21-dodecaen-9-yl]propanamide]",more soluble and potent than VP
